Experiments:
SF-295 = assay: NCI SRB assay; format: cell-based, human; conditions: for GI%: SF-295, 10 μM; for Growth Percent: SF-295, 1.00E-5 Molar
CCRF-CEM = assay: NCI SRB assay; format: cell-based, human; conditions: for GI%: 10 μM; for Growth Percent: 1.00E-5 Molar
hCA II = molecular target: T1, hCA II (Homo sapiens, UniProt P00918); assay: stopped flow CO2 hydrase assay; format: biochemical; conditions: mean from 3 assays
T1 construct: made in house
Procedure: (§1) Carbonic anhydrase inhibition assay
The carbonic anhydrase catalyzed CO2 hydration actions for the quinazoline-based carboxylic acid derivatives (6a-c, 7a-c and 8a-c) were assayed utilizing an instrument of Applied Photophysics stopped-flow, as described previously. The enzymes are recombinant proteins prepared in our lab. Phenol red (at a concentration of 0.2 mM) has been used as indicator, working at the absorbance maximum of 557 nm, with 20 mM Hepes (pH 7.5) as buffer, and 20 mM Na2SO4 (for maintaining constant the ionic strength), following the initial rates of the CA- […]
(§2) 1.7 to 17 mM for the determination of the kinetic parameters and inhibition constants. For each inhibitor at least six traces of the initial 5-10% of the reaction have been used for determining the initial velocity. The uncatalyzed rates were determined in the same manner and subtracted from the total observed rates. Stock solutions of inhibitor (0.1 mM) were prepared in distilled-deionized water and dilutions up to 0.01 nM were done thereafter with the assay buffer. Inhibitor and enzyme solutions were preincubated together for 15 min at room temperature prior to assay, in order to allow for the formation of the E-I complex. The inhibition constants were obtained by non-linear least-squares methods using PRISM 3 and the Cheng-Prusoff equation, and represent the mean from at least three different determinations.

OVCAR-3 = assay: NCI SRB assay; format: cell-based, human; conditions: for GI%: OVCAR-3, 10 μM; for Growth Percent: OVCAR-3, 1.00E-5 Molar
HCT-15 = assay: NCI SRB assay; format: cell-based, human; conditions: for GI%: HCT-15, 10 μM; for Growth Percent: HCT-15, 1.00E-5 Molar
HT29 = assay: NCI SRB assay; format: cell-based, human; conditions: for GI%: HT29, 10 μM; for Growth Percent: HT29, 1.00E-5 Molar
HL-60(TB) = assay: NCI SRB assay; format: cell-based, human; conditions: HL-60(TB); for GI%: 10 μM; for Growth Percent: 1.00E-5 Molar
DU-145 = assay: NCI SRB assay; format: cell-based, human; conditions: for GI%: DU-145, 10 μM; for Growth Percent: DU-145, 1.00E-5 Molar
PC-3 = assay: NCI SRB assay; format: cell-based, human; conditions: for GI%: PC-3, 10 μM; for Growth Percent: PC-3, 1.00E-5 Molar
SK-MEL-5 = assay: NCI SRB assay; format: cell-based, human; conditions: for GI%: SK-MEL-5, 10 μM; for Growth Percent: SK-MEL-5, 1.00E-5 Molar
SK-OV-3 = assay: NCI SRB assay; format: cell-based, human; conditions: for GI%: SK-OV-3, 10 μM; for Growth Percent: SK-OV-3, 1.00E-5 Molar
SNB-75 = assay: NCI SRB assay; format: cell-based, human; conditions: for GI%: SNB-75, 10 μM; for Growth Percent: SNB-75, 1.00E-5 Molar
NCI-H522 = assay: NCI SRB assay; format: cell-based, human; conditions: for GI%: NCI-H522, 10 μM; for Growth Percent: NCI-H522, 1.00E-5 Molar
UACC-62 = assay: NCI SRB assay; format: cell-based, human; conditions: for GI%: UACC-62, 10 μM; for Growth Percent: UACC-62, 1.00E-5 Molar
MDA-MB-468 = assay: NCI SRB assay; format: cell-based, human; conditions: for GI%: MDA-MB-468, 10 μM; for Growth Percent: MDA-MB-468, 1.00E-5 Molar
hCA I = molecular target: T2, hCA I (Homo sapiens, UniProt P00915); assay: stopped flow CO2 hydrase assay; format: biochemical; conditions: mean from 3 assays
T2 construct: made in house
Procedure: as §1
(§3) The carbonic anhydrase catalyzed CO2 hydration actions for the quinazoline-based […]
(§4) Photophysics stopped-flow, as described previously. The enzymes are recombinant proteins prepared in our lab. Phenol red (at a concentration of 0.2 mM) has been used as indicator, working at the absorbance maximum of 557 nm, with 20 mM Hepes (pH 7.5) as buffer, and 20 mM Na2SO4 (for maintaining constant the ionic strength), following the initial rates of the CA- […]
(§5) 1.7 to 17 mM for the determination of the kinetic parameters and inhibition constants. For each […]
as §2, with “initial” for “1.7 to 17 mM for the determination of the kinetic parameters and inhibition constants. For each inhibitor at least six traces of the initial 5-10% of the reaction have been used for determining the initial”

hCA IX = molecular target: T3, hCA IX (Homo sapiens, UniProt Q16790); assay: stopped flow CO2 hydrase assay; format: biochemical; conditions: for Selectivity ratio I/IX: KI hCA I / KI hCA IX; for Selectivity ratio II/IX: KI hCA II / KI hCA IX; for Ki: mean from 3 assays
T3 construct: made in house
Procedure: as §1, §3, §4, §5
as §2, with “initial” for “1.7 to 17 mM for the determination of the kinetic parameters and inhibition constants. For each inhibitor at least six traces of the initial 5-10% of the reaction have been used for determining the initial”

hCA XII = molecular target: T4, hCA XII (Homo sapiens, UniProt O43570); assay: stopped flow CO2 hydrase assay; format: biochemical; conditions: for Selectivity ratio I/XII: KI hCA I / KI hCA XII; for Selectivity ratio II/XII: KI hCA II / KI hCA XII; for Ki: mean from 3 assays
T4 construct: made in house
Procedure: as §1, §3, §4, §5
as §2, with “initial” for “1.7 to 17 mM for the determination of the kinetic parameters and inhibition constants. For each inhibitor at least six traces of the initial 5-10% of the reaction have been used for determining the initial”

KM12 = assay: NCI SRB assay; format: cell-based, human; conditions: for GI%: KM12, 10 μM; for Growth Percent: KM12, 1.00E-5 Molar
NCI-H226 = assay: NCI SRB assay; format: cell-based, human; conditions: for GI%: NCI-H226, 10 μM; for Growth Percent: NCI-H226, 1.00E-5 Molar
HOP-62 = assay: NCI SRB assay; format: cell-based, human; conditions: for GI%: HOP-62, 10 μM; for Growth Percent: HOP-62, 1.00E-5 Molar
CAKI-1 = assay: NCI SRB assay; format: cell-based, human; conditions: for GI%: CAKI-1, 10 μM; for Growth Percent: CAKI-1, 1.00E-5 Molar

T4 sequence (O43570 25-354): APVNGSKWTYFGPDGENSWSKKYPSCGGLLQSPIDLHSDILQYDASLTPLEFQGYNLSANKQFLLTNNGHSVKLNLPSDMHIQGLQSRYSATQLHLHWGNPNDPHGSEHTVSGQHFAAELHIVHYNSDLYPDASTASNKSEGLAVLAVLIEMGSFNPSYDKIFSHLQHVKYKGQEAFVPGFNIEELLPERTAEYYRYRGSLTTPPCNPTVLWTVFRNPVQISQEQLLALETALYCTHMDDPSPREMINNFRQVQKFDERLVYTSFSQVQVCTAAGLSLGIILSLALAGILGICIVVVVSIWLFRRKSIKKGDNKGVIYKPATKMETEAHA
T2 sequence (P00915 whole entry): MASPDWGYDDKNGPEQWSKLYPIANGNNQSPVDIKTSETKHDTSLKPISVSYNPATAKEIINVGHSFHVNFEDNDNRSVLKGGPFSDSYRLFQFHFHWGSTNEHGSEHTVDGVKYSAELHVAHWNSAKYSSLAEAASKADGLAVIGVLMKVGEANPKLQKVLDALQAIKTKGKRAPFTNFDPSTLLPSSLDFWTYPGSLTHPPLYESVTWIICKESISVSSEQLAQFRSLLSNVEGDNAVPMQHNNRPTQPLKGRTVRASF

For `Cc1ccc(-c2nc(Nc3ccc(C(=O)O)cc3)c3ccccc3n2)cc1` [8b, 4-((2-(p-Tolyl)quinazolin-4-yl)amino)benzoic acid], the GI% (SF-295) was 42%, the “Growth Percent” value (SF-295) was 57.85% and the GI% (CCRF-CEM) was 28%. For the same compound, the “Growth Percent” value (CCRF-CEM) was 71.96%, the Ki (hCA II) was 3.9 µM and the GI% (OVCAR-3) was 20%. For the same compound, the “Growth Percent” value (OVCAR-3) was 79.51%, the GI% (HCT-15) was 49% and the “Growth Percent” value (HCT-15) was 50.85%. For the same compound, the GI% (HT29) was “– (Only GI% higher than 20% are shown)”, the “Growth Percent” value (HT29) was 87.37% and the GI% (HL-60(TB)) was 24%. For the same compound, the “Growth Percent” value (HL-60(TB)) was 76.30%, the GI% (DU-145) was “– (Only GI% higher than 20% are shown)” and the “Growth Percent” value (DU-145) was 81.93%. For the same compound, the GI% (PC-3) was 23%, the “Growth Percent” value (PC-3) was 77.04% and the GI% (SK-MEL-5) was 28%. For the same compound, the “Growth Percent” value (SK-MEL-5) was 71.66%, the GI% (SK-OV-3) was “– (Only GI% higher than 20% are shown)” and the “Growth Percent” value (SK-OV-3) was 99.63%. For the same compound, the GI% (SNB-75) was “– (Only GI% higher than 20% are shown)”, the “Growth Percent” value (SNB-75) was 95.80% and the GI% (NCI-H522) was “– (Only GI% higher than 20% are shown)”. For the same compound, the “Growth Percent” value (NCI-H522) was 91.02%, the GI% (UACC-62) was “– (Only GI% higher than 20% are shown)” and the “Growth Percent” value (UACC-62) was 95.83%. The GI% (MDA-MB-468) was “– (Only GI% higher than 20% are shown)”, the “Growth Percent” value (MDA-MB-468) was 108.74% and the Ki (hCA I) was 73.2 µM. For the same compound, the “Selectivity ratio I/IX” value (hCA IX) was 45.8, the “Selectivity ratio II/IX” value (hCA IX) was 2.44 and the Ki (hCA IX) was 1.6 µM. The “Selectivity ratio I/XII” value (hCA XII) was 174.3, the “Selectivity ratio II/XII” value (hCA XII) was 9.29 and the Ki (hCA XII) was 0.42 µM. For the same compound, the GI% (KM12) was 42%, the “Growth Percent” value (KM12) was 57.97% and the GI% (NCI-H226) was 62%. The “Growth Percent” value (NCI-H226) was 37.77%, the GI% (HOP-62) was “– (Only GI% higher than 20% are shown)” and the “Growth Percent” value (HOP-62) was 88.98%. For the same compound, the GI% (CAKI-1) was “– (Only GI% higher than 20% are shown)” and the “Growth Percent” value (CAKI-1) was 88.42%.

`COc1ccc(-c2nc(Nc3ccccc3C(=O)O)c3ccccc3n2)cc1` [6c, 2-((2–(4-Methoxyphenyl)quinazolin-4-yl)amino)benzoic acid] was tested, and the GI% (SF-295) was 60%, the “Growth Percent” value (SF-295) was 39.93% and the GI% (CCRF-CEM) was 58%. The “Growth Percent” value (CCRF-CEM) was 42.05%, the Ki (hCA II) was 83.1 µM and the GI% (OVCAR-3) was 54%. For the same compound, the “Growth Percent” value (OVCAR-3) was 43.93%, the GI% (HCT-15) was 61% and the “Growth Percent” value (HCT-15) was 39.33%. The GI% (HT29) was 37%, the “Growth Percent” value (HT29) was 63.13% and the GI% (HL-60(TB)) was 67%. For the same compound, the “Growth Percent” value (HL-60(TB)) was 32.98%, the GI% (DU-145) was 43% and the “Growth Percent” value (DU-145) was 56.86%. For the same compound, the GI% (PC-3) was 60%, the “Growth Percent” value (PC-3) was 40.04% and the GI% (SK-MEL-5) was 70%. For the same compound, the “Growth Percent” value (SK-MEL-5) was 30.49%, the GI% (SK-OV-3) was 53% and the “Growth Percent” value (SK-OV-3) was 47.19%. For the same compound, the GI% (SNB-75) was 68%, the “Growth Percent” value (SNB-75) was 32.48% and the GI% (NCI-H522) was 63%. The “Growth Percent” value (NCI-H522) was 37.29%, the GI% (UACC-62) was 44% and the “Growth Percent” value (UACC-62) was 55.88%. For the same compound, the GI% (MDA-MB-468) was 57%, the “Growth Percent” value (MDA-MB-468) was 42.97% and the Ki (hCA I) was greater than 100 µM. The “Selectivity ratio II/IX” value (hCA IX) was 1.79, the Ki (hCA IX) was 46.4 µM and the “Selectivity ratio I/XII” value (hCA XII) was 11.2. The “Selectivity ratio II/XII” value (hCA XII) was 9.34, the Ki (hCA XII) was 8.9 µM and the GI% (KM12) was 64%. For the same compound, the “Growth Percent” value (KM12) was 35.66%, the GI% (NCI-H226) was 47% and the “Growth Percent” value (NCI-H226) was 53.45%. For the same compound, the GI% (HOP-62) was 49%, the “Growth Percent” value (HOP-62) was 51.05% and the GI% (CAKI-1) was 53%. For the same compound, the “Growth Percent” value (CAKI-1) was 46.89%.

In the case of `Cc1cccc(-c2nc(Nc3ccccc3C(=O)O)c3ccccc3n2)c1` [6a, 2-((2-(m-Tolyl)quinazolin-4-yl)amino)benzoic acid], the GI% (SF-295) is reported as 73%, the “Growth Percent” value (SF-295) is reported as 27.07% and the GI% (CCRF-CEM) is reported as 82%. For the same compound, the “Growth Percent” value (CCRF-CEM) was 17.83%, the Ki (hCA II) was 85.2 µM and the GI% (OVCAR-3) was 66%. For the same compound, the “Growth Percent” value (OVCAR-3) was 34.15%, the GI% (HCT-15) was 86% and the “Growth Percent” value (HCT-15) was 14.29%. The GI% (HT29) was 60%, the “Growth Percent” value (HT29) was 39.66% and the GI% (HL-60(TB)) was 60%. For the same compound, the “Growth Percent” value (HL-60(TB)) was 39.37%, the GI% (DU-145) was 50% and the “Growth Percent” value (DU-145) was 50.47%. The GI% (PC-3) was 71%, the “Growth Percent” value (PC-3) was 29.47% and the GI% (SK-MEL-5) was 94%. For the same compound, the “Growth Percent” value (SK-MEL-5) was 6.01%, the GI% (SK-OV-3) was 24% and the “Growth Percent” value (SK-OV-3) was 76.74%. For the same compound, the GI% (SNB-75) was 45%, the “Growth Percent” value (SNB-75) was 55.27% and the GI% (NCI-H522) was 40%. For the same compound, the “Growth Percent” value (NCI-H522) was 59.94%, the GI% (UACC-62) was 72% and the “Growth Percent” value (UACC-62) was 28.00%. The GI% (MDA-MB-468) was 115%, the “Growth Percent” value (MDA-MB-468) was -15.06% and the Ki (hCA I) was greater than 100 µM. For the same compound, the “Selectivity ratio I/IX” value (hCA IX) was 2.4, the “Selectivity ratio II/IX” value (hCA IX) was 2.00 and the Ki (hCA IX) was 42.5 µM. For the same compound, the “Selectivity ratio I/XII” value (hCA XII) was 11.1, the “Selectivity ratio II/XII” value (hCA XII) was 9.47 and the Ki (hCA XII) was 9 µM. For the same compound, the GI% (KM12) was 70%, the “Growth Percent” value (KM12) was 29.97% and the GI% (NCI-H226) was 64%. For the same compound, the “Growth Percent” value (NCI-H226) was 36.13%, the GI% (HOP-62) was 54% and the “Growth Percent” value (HOP-62) was 46.18%. The GI% (CAKI-1) was 48% and the “Growth Percent” value (CAKI-1) was 52.39%.
